Consider 1 molecule from US20180015098A1 (LAM Therapeutics, Inc., priority 2015, published 2018).

In the test the test system is panel of 456 kinases. Nature of the test: Screen of apilimod against a comprehensive panel of 456 kinases (PIKfyve not included). Format: binding. The following applies: screening concentration 1 μM. From the text:
Next, apilimod was screened against a comprehensive panel of kinases (PIKfyve not included).

Turning to `Cc1cccc(/C=N/Nc2cc(N3CCOCC3)nc(OCCc3ccccn3)n2)c1` [apilimod], the “binding to kinases of the panel” value is reported as “did not bind to any of the 456 kinases tested”.
